Measurements taken from ChEMBL document CHEMBL1914292, “Synthesis and in vitro cytotoxic activity of novel pyrazolo[3,4-d]pyrimidines and related pyrazole hydrazones toward breast adenocarcinoma MCF-7 cell line” (Bioorg Med Chem, 2011).

What was measured:
[1] = system: MCF7; assay: Cytotoxicity against human MCF7 cells after 48 hrs by SRB colorimetric assay; format: functional, cell-based; settings: MCF7, 48 h
[2] = system: MCF7; assay: Induction of oxidative stress in human MCF7 cells assessed as GSH level per mg of protein at 1/10 of IC50 after 24 hrs (reference value: 40 +/- 5 nmol); format: functional
[3] = system: MCF7; assay: Cytotoxicity against human MCF7 cells assessed as nitric oxide level per mg protein at 1/10 of IC50 after 24 hrs (reference value: 1.9 +/- 0.16 umol); format: functional
[4] = system: MCF7; assay: Induction of oxidative stress in human MCF7 cells assessed as hydrogen peroxide level per mg of protein at 1/10 of IC50 after 24 hrs (reference value: 15.7 +/- 1.6 nmol); format: functional
[5] = system: MCF7; assay: Cytotoxicity against human MCF7 cells assessed as protein level per 10 '6 cells at 1/10 of IC50 after 24 hrs (reference value: 110.5 +/- 12.3 ug); format: functional
[6] = system: MCF7; assay: Induction of oxidative stress in human MCF7 cells assessed as glutathione peroxidase activity per mg of protein at 1/10 of IC50 after 24 hrs (reference value: 9.3 +/- 1 U); format: functional
[7] = system: MCF7; assay: Induction of oxidative stress in human MCF7 cells assessed as superoxide dismutase activity per mg of protein at 1/10 of IC50 after 24 hrs (reference value: 40.3 +/- 4.75 U); format: functional
[8] = system: MCF7; assay: Cytotoxicity against human MCF7 cells assessed as RNA level per 10 '6 cells at 1/10 of IC50 after 24 hrs (reference value: 15.3 +/- 1.6 ug); format: functional
[9] = system: MCF7; assay: Cytotoxicity against human MCF7 cells assessed as DNA level per 10 '6 cells at 1/10 of IC50 after 24 hrs (reference value: 8.5 +/- 0.8 ug); format: functional
[10] = system: MCF7; assay: Induction of oxidative stress in human MCF7 cells assessed as catalase activity per mg of protein at 1/10 of IC50 after 24 hrs (reference value: 7.6 +/- 0.7 U); format: functional

Compound	IC50 [1]	Activity [2]	Activity [3]	Activity [4]	Activity [5]	Activity [6]	Activity [7]	Activity [8]	Activity [9]	Activity [10]
COc1ccc(/C=N/n2c(C)nc3c(cnn3S(=O)(=O)c3ccc(Cl)cc3)c2=O)cc1	41.9 µM									
Cc1nc2c(cnn2-c2ccc(Cl)cc2)c(=O)n1/N=C/c1ccccc1	23.1 µM	30.4 nmol	3 µmol	30 nmol	55.4 µg	6 U	95.25 U	5 µg	5.11 µg	3.82 U
COc1cc(C(=O)Nn2c(C)nc3c(cnn3S(=O)(=O)c3ccc(Cl)cc3)c2=O)cc(OC)c1OC	35.8 µM									
Cc1nc2c(cnn2S(=O)(=O)c2ccc(Cl)cc2)c(=O)n1/N=C/c1ccccc1	22.4 µM									
COc1ccc(/C=N/NC(=O)c2cn[nH]c2NC(C)=O)cc1OC	37.1 µM									
COc1cc(/C=N/n2c(C)nc3c(cnn3S(=O)(=O)c3ccc(Cl)cc3)c2=O)cc(OC)c1OC	27.8 µM	34.2 nmol	2.8 µmol	27.8 nmol	78.3 µg	6.8 U	80 U	7.22 µg	5.3 µg	4.3 U
COc1cc(/C=N/n2c(C)nc3c(cnn3-c3ccc(Cl)cc3)c2=O)cc(OC)c1OC	7.6 µM	17.8 nmol	4.4 µmol	53.3 nmol	27.5 µg	4.85 U	110 U	2.6 µg	3 µg	2.2 U
COc1ccc(/C=N/NC(=O)c2cn[nH]c2NC(C)=O)cc1	61.7 µM									
CC(=O)Nc1[nH]ncc1C(=O)N/N=C/c1ccccc1	42 µM									
COc1cc(/C=N/NC(=O)c2cn[nH]c2NC(C)=O)cc(OC)c1OC	32.1 µM	30.11 nmol	3 µmol	25.6 nmol	85.8 µg	7.33 U	75.44 U	8.8 µg	6.1 µg	5.85 U
COc1ccc(/C=N/n2c(C)nc3c(cnn3-c3ccc(Cl)cc3)c2=O)cc1	38.6 µM	36.3 nmol	2.9 µmol	24.8 nmol	80.2 µg	8 U	50 U	12 µg	7 µg	7.4 U
Cc1nc2c(cnn2-c2ccccc2)c(=O)n1-c1cnc2ccccc2c1	1.53 µM									
COc1cc(/C=N/n2c(C)nc3c(cnn3-c3ccc(Cl)cc3)c2=O)ccc1O	19.8 µM	23.5 nmol	3.6 µmol	39.4 nmol	42.6 µg	5.4 U	100.3 U	3.2 µg	4.5 µg	3.5 U
COc1ccc(/C=N/n2c(C)nc3c(cnn3-c3ccc(Cl)cc3)c2=O)cc1OC	25 µM									
COc1ccc(/C=N/n2c(C)nc3c(cnn3S(=O)(=O)c3ccc(Cl)cc3)c2=O)cc1OC	33.6 µM									
